Data published in the supplement of paper PMC11061612.

How the values were obtained:
[1] = compound: C1CC(C1)(C(=O)[O-])C(=O)[O-].N.N.[Pt+2] [Carboplatin]; details: max 10 µM
Outline: (§1)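 Cancer cell lines were dosed for 72 hours (final DMSO typically 0.2%) after 24 hours at 37°C and 5% CO2 in 1536-well plates containing 7.5 μl DMEM/F12 or RPMI with 10% FBS. Viability came from CellTiter-Glo 2.0 luminescence, scaled between blank-well and DMSO-well means, and dose responses were fitted to a two-parameter logistic curve with a non-linear mixed effects model. The single-agent IC50 was obtained from this fit.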

[2] = compound: C1CN(CCC1(C(=O)N[C@@H](CCO)C2=CC=C(C=C2)Cl)N)C3=NC=NC4=C3C=CN4 [AZD5363]; details: max 10 µM
Outline: as §1

[3] = compound: C=CCn1c(=O)c2cnc(Nc3ccc(N4CCN(C)CC4)cc3)nc2n1-c1cccc(C(C)(C)O)n1 [AZD1775]; details: max 3 µM
Outline: as §1

[4] = compound: CC(=O)Nc1cccc(-n2c(=O)n(C3CC3)c(=O)c3c(Nc4ccc(I)cc4F)n(C)c(=O)c(C)c32)c1 [Trametinib]; details: max 1 µM
Outline: as §1

[5] = compound: CC(=O)O[C@H]1C(=O)[C@@]2(C)[C@H]([C@H](OC(=O)c3ccccc3)[C@]3(O)C[C@H](OC(=O)[C@H](O)[C@@H](NC(=O)c4ccccc4)c4ccccc4)C(C)=C1C3(C)C)[C@]1(OC(C)=O)CO[C@@H]1C[C@@H]2O [Paclitaxel]; details: max 3 µM
Outline: as §1

[6] = compound: CC(=O)c1c(C)c2cnc(Nc3ccc(N4CCNCC4)cn3)nc2n(C2CCCC2)c1=O [Palbociclib]; details: max 10 µM
Outline: as §1

[7] = compound: CC(C)n1c(=O)n(C)c2cnc3cc(F)c(-c4ccc(OCCCN5CCCCC5)nc4)cc3c21 [AZD1390]; details: max 0.3 µM
Outline: as §1

[8] = compound: CC1(C)CCC(CN2CCN(c3ccc(C(=O)NS(=O)(=O)c4ccc(NCC5CCOCC5)c([N+](=O)[O-])c4)c(Oc4cnc5[nH]ccc5c4)c3)CC2)=C(c2ccc(Cl)cc2)C1 [Venetoclax]; details: max 1 µM
Outline: as §1

[9] = compound: CC1=C(C(=CC=C1)Cl)NC(=O)C2=CN=C(S2)NC3=CC(=NC(=N3)C)N4CCN(CC4)CCO [Dasatinib]; details: max 2 µM
Outline: as §1

[10] = compound: CC1=CN2[C@@H](C1)C=NC3=CC(=C(C=C3C2=O)OC)OCCCCCOC4=C(C=C5C(=C4)N=C[C@@H]6CC(=CN6C5=O)C)OC [SG3199]; details: max 0.001 µM
Outline: as §1

[11] = compound: CCN(CCO)CCCOc1ccc2c(Nc3cc(CC(=O)Nc4cccc(F)c4)[nH]n3)ncnc2c1 [AZD2811]; details: max 1 µM
Outline: as §1

[12] = compound: CCc1c2c(nc3ccc(O)cc13)-c1cc3c(c(=O)n1C2)COC(=O)[C@]3(O)CC [SN-38]; details: max 0.3 µM
Outline: as §1

[13] = compound: CN(C)CCCOc1ccc(-c2ccc3ncc4c(c3c2)n(C2CCOCC2)c(=O)n4C)cn1 [AZD0156]; details: max 3 µM
Outline: as §1

[14] = compound: COc1cc(Nc2ncc3c(n2)-c2ccc(Cl)cc2C(c2c(F)cccc2OC)=NC3)ccc1C(=O)O [Alisertib]; details: max 10 µM
Outline: as §1

[15] = compound: COc1cc([C@@H]2c3cc4c(cc3[C@@H](O[C@@H]3O[C@@H]5CO[C@@H](C)O[C@H]5[C@H](O)[C@H]3O)[C@H]3COC(=O)[C@H]23)OCO4)cc(OC)c1O [Etoposide]; details: max 10 µM
Outline: as §1

[16] = compound: COc1cc2ncnc(Nc3ccc(F)c(Cl)c3)c2cc1OCCCN1CCOCC1 [Gefitinib]; details: max 10 µM
Outline: as §1

[17] = compound: COc1cccc(OCCCN)c1-c1cc(Nc2cnc(C#N)cn2)n[nH]1 [Prexasertib]; details: max 1 µM
Outline: as §1

[18] = compound: COc1cccc2c1C(=O)c1c(O)c3c(c(O)c1C2=O)C[C@@](O)(C(=O)CO)C[C@@H]3O[C@H]1C[C@H](N)[C@H](O)[C@H](C)O1 [Doxorubicin]; details: max 1 µM
Outline: as §1

[19] = compound: COc1nnc2ccc(N3CCC(c4ccc(OCCN5CCN(C)C(=O)[C@H]5C)cc4)CC3)nn12 [AZD5153]; details: max 1 µM
Outline: as §1

[20] = compound: CS(=O)(=O)CCNCc1ccc(-c2ccc3ncnc(Nc4ccc(OCc5cccc(F)c5)c(Cl)c4)c3c2)o1 [Lapatinib]; details: max 10 µM
Outline: as §1

[21] = compound: C[C@@H](Nc1cc(F)cc(F)c1)c1cc(C(=O)N(C)C)cc2c(=O)cc(N3CCOCC3)oc12 [AZD8186]
Outline: as §1

[22] = compound: C[C@@H](Oc1cc(-c2cnn(C3CCNCC3)c2)cnc1N)c1c(Cl)ccc(F)c1Cl [Crizotinib]; details: max 10 µM
Outline: as §1

[23] = compound: C[C@@H](c1ccc2nccn2c1)n1nnc2ncc(-c3cnn(C)c3)nc21 [Savolitinib]; details: max 1 µM
Outline: as §1

[24] = compound: C[C@@H]1COCCN1C2=NC(=NC(=C2)C3(CC3)[S@](=N)(=O)C)C4=C5C=CNC5=NC=C4 [AZD6738]; details: max 10 µM
Outline: as §1

[25] = compound: Cc1c2c(nn1C)CSCc1cc(n(C)n1)CSc1cc(c3ccccc3c1)OCCCc1c(C(=O)O)n(C)c3c-2c(Cl)ccc13 [AZD5991]; details: max 1 µM
Outline: as §1

[26] = compound: Cc1cc2ncnn2cc1Nc1ncc2c(n1)n(C1CCOCC1)c(=O)n2C [AZD7648]; details: max 10 µM
Outline: as §1

[27] = compound: Cc1nc(-c2cn3c(n2)-c2ccc(-c4cnn(C(C)(C)C(N)=O)c4)cc2OCC3)n(C(C)C)n1 [Taselisib]; details: max 10 µM
Outline: as §1

[28] = compound: Cn1cnc2c(F)c(Nc3ccc(Br)cc3Cl)c(C(=O)NOCCO)cc21 [Selumetinib]; details: max 10 µM
Outline: as §1

[29] = compound: N#Cc1cnc(Nc2cc(NC[C@H]3CNCCO3)c(C(F)(F)F)cn2)cn1 [SRA737]; details: max 10 µM
Outline: as §1

[30] = compound: NC1(c2ccc(-c3nc4ccn5c(=O)[nH]nc5c4cc3-c3ccccc3)cc2)CCC1 [MK-2206]; details: max 10 µM
Outline: as §1

[31] = compound: Nc1ccn([C@@H]2O[C@H](CO)[C@@H](O)C2(F)F)c(=O)n1 [Gemcitabine]; details: max 0.3 µM
Outline: as §1

[32] = compound: O=C(Nc1ccc2[nH]nc(-c3ccncc3)c2c1)[C@@H]1CCN(CC(=O)N2CCN(c3ccc(-c4ncccn4)cc3)CC2)C1; details: max 5 µM
Outline: as §1

[33] = compound: O=C(c1cc(Cc2n[nH]c(=O)c3ccccc23)ccc1F)N1CCN(C(=O)C2CC2)CC1 [Olaparib]; details: max 10 µM
Outline: as §1

[34] = compound: O=c1[nH]cc(F)c(=O)[nH]1 [5-Fluorouracil]; details: max 20 µM
Outline: as §1

[35] = compound: C1CN(CCC1(C(=O)N[C@@H](CCO)C2=CC=C(C=C2)Cl)N)C3=NC=NC4=C3C=CN4 [Capivasertib]; details: max 10 µM
Outline: as §1

[36] = compound: CN(CC[C@H](CSC1=CC=CC=C1)NC2=C(C=C(C=C2)S(=O)(=O)NC(=O)C3=CC=C(C=C3)N4CCC(CC4)[C@H](C5=CC=CC=C5C6=CC=C(C=C6)Cl)O)S(=O)(=O)C(F)(F)F)CCO [AZD4320]; details: max 1 µM
Outline: as §1

Cell Line	IC50, cell viability 72 h [1] [nM]	IC50, cell viability 72 h [2] [nM]	IC50, cell viability 72 h [3] [nM]	IC50, cell viability 72 h [4] [nM]	IC50, cell viability 72 h [5] [nM]	IC50, cell viability 72 h [6] [nM]	IC50, cell viability 72 h [7] [nM]	IC50, cell viability 72 h [8] [nM]	IC50, cell viability 72 h [9] [nM]	IC50, cell viability 72 h [10] [nM]	IC50, cell viability 72 h [11] [nM]	IC50, cell viability 72 h [12] [nM]	IC50, cell viability 72 h [13] [nM]	IC50, cell viability 72 h [14] [nM]	IC50, cell viability 72 h [15] [nM]	IC50, cell viability 72 h [16] [nM]	IC50, cell viability 72 h [17] [nM]	IC50, cell viability 72 h [18] [nM]	IC50, cell viability 72 h [19] [nM]	IC50, cell viability 72 h [20] [nM]	IC50, cell viability 72 h ([21]; max 10 µM) [nM]	IC50, cell viability 72 h [22] [nM]	IC50, cell viability 72 h [23] [nM]	IC50, cell viability 72 h [24] [nM]	IC50, cell viability 72 h [25] [nM]	IC50, cell viability 72 h [26] [nM]	IC50, cell viability 72 h [27] [nM]	IC50, cell viability 72 h [28] [nM]	IC50, cell viability 72 h [29] [nM]	IC50, cell viability 72 h [30] [nM]	IC50, cell viability 72 h [31] [nM]	IC50, cell viability 72 h [32] [nM]	IC50, cell viability 72 h [33] [nM]	IC50, cell viability 72 h [34] [nM]	IC50, cell viability 72 h [35] [nM]	IC50, cell viability 72 h [36] [nM]	IC50, cell viability 72 h ([21]; max 3 µM) [nM]
LS-123 (Colorectal Carcinoma)	> 10000	> 10000	2920	395	1210	> 10000	> 300	> 1000	557	> 1	> 1000	> 300	> 3000	> 10000	> 10000	> 10000	96.4	611	> 1000	> 10000	> 10000	> 10000	> 1000	> 10000	> 1000	> 10000	1940	> 10000	> 10000	> 10000	> 300	2730	> 10000	> 20000			
NCI-H1568 (Lung Adenocarcinoma)			1760	> 1000		> 10000	> 300	> 1000	> 2000	> 1	> 1000	297	> 3000	> 10000		> 10000	424	> 1000	> 1000	> 10000		> 10000	> 1000	> 10000	> 1000	> 10000	> 10000	> 10000					> 10000		> 10000	> 1000	> 3000
NCI-H2052 (Mesothelioma)			> 3000	> 1000		> 10000	> 300	> 1000	1510	> 1	> 1000	38.5	> 3000	> 10000		> 10000	574	> 1000	> 1000	> 10000		> 10000	> 1000	> 10000	> 1000	> 10000	3670	> 10000		> 10000			> 10000		> 10000	> 1000	> 3000
NCI-H2722 (Mesothelioma)			> 3000	> 1000		> 10000	> 300	> 1000	> 2000	> 1	> 1000	> 300	> 3000	> 10000		> 10000	> 1000	> 1000	> 1000	> 10000		> 10000	> 1000	> 10000	> 1000	> 10000	> 10000	> 10000					> 10000		> 10000	> 1000	> 3000
NUGC-4 (Gastric Carcinoma)			2530	> 1000		> 10000	> 300	> 1000	> 2000	> 1	> 1000	> 300	> 3000	> 10000		> 10000	948	> 1000	582	> 10000		> 10000	> 1000	> 10000	> 1000	> 10000	> 10000	5680					> 10000		> 10000	> 1000	> 3000
OV-56 (Ovarian Carcinoma)			> 3000	> 1000		> 10000	> 300	> 1000	> 2000	> 1	> 1000	25	> 3000	> 10000		> 10000	42.2	> 1000	> 1000	> 10000		> 10000	> 1000	> 10000	> 1000	> 10000	> 10000	> 10000					> 10000		> 10000	> 1000	> 3000
SW1573 (Lung Adenocarcinoma)			> 3000	> 1000		> 10000	> 300	> 1000	> 2000	> 1	> 1000	52.2	> 3000	> 10000		> 10000	> 1000	> 1000	> 1000	> 10000		> 10000	> 1000	> 10000	> 1000	> 10000	> 10000	> 10000					> 10000		> 10000	> 1000	> 3000
